In patent US20260053827A1, “Cannabidiol Solid Dosage Forms” (priority 2024, published 2026):

Settings: saturation solubility of CBD in the liquid lipid given as label; supernatant assayed
Method: Each liquid lipophilic material was heated at 40° C. for 30 minutes in an oven before being combined with the CBD. 10 g of CBD was combined with 5 g of lipophilic material to create a saturated mixture. […] After agitation the solutions were centrifuged at 14800 rpm for 90 minutes to separate out any remaining undissolved CBD crystals. The resulting supernatant was sampled and assayed for CBD content to confirm the saturation solubility of the lipid.

CCOCCOCCO [Transcutol]
CBD: 653.2 mg/g
